Drawing on ChEMBL document CHEMBL3621100, “Discovery of Novel Class I Histone Deacetylase Inhibitors with Promising in Vitro and in Vivo Antitumor Activities” (J Med Chem, 2015), this text covers IC50 and GI50 for three compounds.

Histone deacetylase 2, sequence (Q92769 whole entry): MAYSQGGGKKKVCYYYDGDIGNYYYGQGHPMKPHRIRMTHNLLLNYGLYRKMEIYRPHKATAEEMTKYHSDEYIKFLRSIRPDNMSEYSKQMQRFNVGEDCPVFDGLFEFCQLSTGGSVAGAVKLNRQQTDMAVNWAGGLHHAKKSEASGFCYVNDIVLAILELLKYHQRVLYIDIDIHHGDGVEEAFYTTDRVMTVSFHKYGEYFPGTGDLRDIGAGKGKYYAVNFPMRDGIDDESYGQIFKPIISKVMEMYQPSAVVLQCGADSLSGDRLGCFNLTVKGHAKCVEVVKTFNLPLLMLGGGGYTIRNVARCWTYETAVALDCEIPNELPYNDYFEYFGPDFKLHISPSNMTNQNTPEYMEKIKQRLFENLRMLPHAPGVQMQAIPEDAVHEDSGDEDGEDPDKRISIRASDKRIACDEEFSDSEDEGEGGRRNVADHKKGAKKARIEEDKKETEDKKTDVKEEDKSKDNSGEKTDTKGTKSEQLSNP

For the first series, the target named is Histone deacetylase 1 (Homo sapiens, UniProt Q13547). Put plainly: Inhibition of recombinant human HDAC1 after 60 mins by fluorescence assay.
Histone deacetylase 1, sequence (Q13547 whole entry): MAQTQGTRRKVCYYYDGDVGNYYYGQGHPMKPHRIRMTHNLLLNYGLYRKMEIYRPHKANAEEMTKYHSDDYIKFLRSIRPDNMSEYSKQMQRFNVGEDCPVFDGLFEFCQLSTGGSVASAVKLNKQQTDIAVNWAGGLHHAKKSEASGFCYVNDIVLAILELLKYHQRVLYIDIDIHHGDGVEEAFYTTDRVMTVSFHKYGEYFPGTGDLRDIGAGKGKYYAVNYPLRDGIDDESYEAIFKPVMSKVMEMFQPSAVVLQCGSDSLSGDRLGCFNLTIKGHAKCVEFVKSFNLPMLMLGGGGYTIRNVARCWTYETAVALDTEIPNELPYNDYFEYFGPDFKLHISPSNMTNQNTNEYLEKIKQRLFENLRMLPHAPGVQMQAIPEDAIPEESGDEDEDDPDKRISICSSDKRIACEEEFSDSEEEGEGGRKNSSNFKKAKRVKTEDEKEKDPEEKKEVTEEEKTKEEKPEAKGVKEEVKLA
Conditions: not given
For the compound `C/C=C1\NC(=O)c2csc(n2)[C@@H](C(C)C)NC(=O)C[C@@H](/C=C/CCSC(=O)CCCCCCC)OC(=O)[C@H](C(C)C)NC1=O`, the half-maximal inhibitory concentration (IC50) (commonly the point on the concentration scale where inhibition reaches its midpoint) was 165 nM.

Regarding `C/C=C1\NC(=O)c2csc(n2)CNC(=O)C[C@@H](/C=C/CCSC(=O)CCCCCCC)OC(=O)[C@H](C(C)C)NC1=O`, the 50% inhibitory concentration (IC50) worked out at 158 nM.

For the compound `C/C=C1\NC(=O)c2csc(n2)CNC(=O)C[C@@H](/C=C/CCSC(C)=O)OC(=O)[C@H](C(C)C)NC1=O`, the half-maximal inhibitory concentration (IC50) was 21.6 nM.

A further series addresses Histone deacetylase 2 (Homo sapiens, UniProt Q92769). Put plainly: Inhibition of recombinant human HDAC2 after 60 mins by fluorescence assay.
Conditions: not given
With `C/C=C1\NC(=O)c2csc(n2)[C@@H](C(C)C)NC(=O)C[C@@H](/C=C/CCSC(=O)CCCCCCC)OC(=O)[C@H](C(C)C)NC1=O`, the IC50 is 2740 nM.

On to `C/C=C1\NC(=O)c2csc(n2)CNC(=O)C[C@@H](/C=C/CCSC(=O)CCCCCCC)OC(=O)[C@H](C(C)C)NC1=O`, for which the 50% inhibitory concentration (IC50) was 2710 nM.

Regarding `C/C=C1\NC(=O)c2csc(n2)CNC(=O)C[C@@H](/C=C/CCSC(C)=O)OC(=O)[C@H](C(C)C)NC1=O`, the half-maximal inhibitory concentration (IC50) was found to be 328 nM.

A further series deals with T1, Histone deacetylase 8 (Homo sapiens, UniProt Q9BY41).
T1 sequence (Q9BY41 whole entry): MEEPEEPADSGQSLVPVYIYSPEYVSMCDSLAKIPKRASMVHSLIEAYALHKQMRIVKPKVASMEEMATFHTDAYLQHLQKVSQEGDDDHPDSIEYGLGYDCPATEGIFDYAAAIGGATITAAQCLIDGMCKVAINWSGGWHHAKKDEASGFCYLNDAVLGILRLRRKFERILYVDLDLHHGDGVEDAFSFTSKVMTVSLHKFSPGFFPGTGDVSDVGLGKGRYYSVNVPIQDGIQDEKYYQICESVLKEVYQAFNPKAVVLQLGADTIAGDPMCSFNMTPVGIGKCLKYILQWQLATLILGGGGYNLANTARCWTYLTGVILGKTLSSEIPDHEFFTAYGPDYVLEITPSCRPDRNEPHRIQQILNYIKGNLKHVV
Put plainly: Inhibition of recombinant human HDAC8 after 60 mins by fluorescence assay.
Conditions: not given
`C/C=C1\NC(=O)c2csc(n2)[C@@H](C(C)C)NC(=O)C[C@@H](/C=C/CCSC(=O)CCCCCCC)OC(=O)[C@H](C(C)C)NC1=O`: the IC50 is greater than 10000 nM.

As for `C/C=C1\NC(=O)c2csc(n2)CNC(=O)C[C@@H](/C=C/CCSC(=O)CCCCCCC)OC(=O)[C@H](C(C)C)NC1=O`, the 50% inhibitory concentration (IC50) was greater than 10000 nM.

As for `C/C=C1\NC(=O)c2csc(n2)CNC(=O)C[C@@H](/C=C/CCSC(C)=O)OC(=O)[C@H](C(C)C)NC1=O`, the IC50 is greater than 10000 nM.

For another series, the target named is Histone deacetylase 5 (Homo sapiens, UniProt Q9UQL6). Put plainly: Inhibition of recombinant human HDAC5 after 60 mins by fluorescence assay.
Histone deacetylase 5, sequence (Q9UQL6 whole entry): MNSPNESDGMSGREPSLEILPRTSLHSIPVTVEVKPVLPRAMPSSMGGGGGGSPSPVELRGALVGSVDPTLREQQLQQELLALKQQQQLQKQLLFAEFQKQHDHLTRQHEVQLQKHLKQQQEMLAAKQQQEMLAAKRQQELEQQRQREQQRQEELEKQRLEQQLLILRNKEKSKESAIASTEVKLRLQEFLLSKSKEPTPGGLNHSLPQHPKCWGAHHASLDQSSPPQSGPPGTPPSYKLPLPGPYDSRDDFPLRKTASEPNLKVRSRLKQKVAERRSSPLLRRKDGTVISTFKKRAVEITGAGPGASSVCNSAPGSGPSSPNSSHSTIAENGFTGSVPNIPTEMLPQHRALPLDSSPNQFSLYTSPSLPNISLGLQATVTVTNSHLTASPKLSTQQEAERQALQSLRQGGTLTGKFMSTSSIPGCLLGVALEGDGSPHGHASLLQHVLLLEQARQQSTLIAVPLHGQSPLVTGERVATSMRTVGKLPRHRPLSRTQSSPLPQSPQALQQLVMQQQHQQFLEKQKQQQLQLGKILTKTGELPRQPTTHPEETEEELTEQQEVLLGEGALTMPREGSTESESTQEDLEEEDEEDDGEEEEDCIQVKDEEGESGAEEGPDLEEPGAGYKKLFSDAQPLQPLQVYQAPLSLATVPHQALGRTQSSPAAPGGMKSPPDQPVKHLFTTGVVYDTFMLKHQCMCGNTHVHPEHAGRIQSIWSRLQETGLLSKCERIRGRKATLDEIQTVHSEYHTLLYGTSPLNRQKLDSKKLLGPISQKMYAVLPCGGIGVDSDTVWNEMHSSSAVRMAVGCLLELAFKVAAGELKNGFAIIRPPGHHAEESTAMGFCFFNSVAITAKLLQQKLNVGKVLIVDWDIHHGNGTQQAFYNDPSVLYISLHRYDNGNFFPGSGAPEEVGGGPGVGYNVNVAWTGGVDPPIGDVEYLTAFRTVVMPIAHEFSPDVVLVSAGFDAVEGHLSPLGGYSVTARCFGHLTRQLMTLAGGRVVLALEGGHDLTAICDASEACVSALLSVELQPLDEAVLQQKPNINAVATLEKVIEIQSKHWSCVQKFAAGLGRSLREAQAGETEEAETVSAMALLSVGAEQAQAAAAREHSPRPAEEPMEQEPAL
Conditions: not given
Take `C/C=C1\NC(=O)c2csc(n2)[C@@H](C(C)C)NC(=O)C[C@@H](/C=C/CCSC(=O)CCCCCCC)OC(=O)[C@H](C(C)C)NC1=O`: the 50% inhibitory concentration (IC50) was greater than 10000 nM.

As for `C/C=C1\NC(=O)c2csc(n2)CNC(=O)C[C@@H](/C=C/CCSC(=O)CCCCCCC)OC(=O)[C@H](C(C)C)NC1=O`, the IC50 was greater than 10000 nM.

On to `C/C=C1\NC(=O)c2csc(n2)CNC(=O)C[C@@H](/C=C/CCSC(C)=O)OC(=O)[C@H](C(C)C)NC1=O`, for which the concentration for half-maximal inhibition (IC50) was greater than 10000 nM.

A further series addresses T2, Protein deacetylase HDAC6 (Homo sapiens, UniProt Q9UBN7).
T2 sequence (Q9UBN7 whole entry): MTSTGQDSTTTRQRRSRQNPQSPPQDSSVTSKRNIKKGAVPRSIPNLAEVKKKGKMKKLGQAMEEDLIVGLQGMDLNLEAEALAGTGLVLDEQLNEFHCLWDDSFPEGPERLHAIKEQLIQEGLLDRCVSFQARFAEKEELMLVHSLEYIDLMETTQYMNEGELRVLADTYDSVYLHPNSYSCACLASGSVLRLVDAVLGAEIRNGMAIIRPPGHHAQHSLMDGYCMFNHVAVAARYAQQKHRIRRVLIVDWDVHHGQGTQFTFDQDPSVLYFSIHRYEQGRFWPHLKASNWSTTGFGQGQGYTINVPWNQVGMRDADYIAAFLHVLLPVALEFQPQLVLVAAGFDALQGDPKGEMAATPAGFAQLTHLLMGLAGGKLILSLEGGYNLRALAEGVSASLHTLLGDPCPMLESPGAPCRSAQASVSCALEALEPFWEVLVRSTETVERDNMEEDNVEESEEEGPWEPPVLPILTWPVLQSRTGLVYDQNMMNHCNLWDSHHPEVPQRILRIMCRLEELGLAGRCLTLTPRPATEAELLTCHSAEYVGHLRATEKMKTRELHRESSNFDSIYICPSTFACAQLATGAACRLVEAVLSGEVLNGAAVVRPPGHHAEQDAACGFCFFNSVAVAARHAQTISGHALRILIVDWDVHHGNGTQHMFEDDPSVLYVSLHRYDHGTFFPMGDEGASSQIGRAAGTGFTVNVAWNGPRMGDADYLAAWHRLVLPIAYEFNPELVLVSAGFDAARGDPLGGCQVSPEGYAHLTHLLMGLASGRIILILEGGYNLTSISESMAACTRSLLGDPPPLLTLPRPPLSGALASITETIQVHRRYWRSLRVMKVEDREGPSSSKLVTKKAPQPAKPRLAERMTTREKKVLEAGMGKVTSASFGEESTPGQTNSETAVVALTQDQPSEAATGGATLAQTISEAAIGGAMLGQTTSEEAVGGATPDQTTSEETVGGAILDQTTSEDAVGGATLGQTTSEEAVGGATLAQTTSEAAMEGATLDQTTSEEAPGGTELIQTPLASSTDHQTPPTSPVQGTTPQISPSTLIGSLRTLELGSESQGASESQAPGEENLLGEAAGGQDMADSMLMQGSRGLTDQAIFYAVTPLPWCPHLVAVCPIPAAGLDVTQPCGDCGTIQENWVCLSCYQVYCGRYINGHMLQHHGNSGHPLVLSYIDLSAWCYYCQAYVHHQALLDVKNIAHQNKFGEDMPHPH
The experiment in a line: Inhibition of recombinant human HDAC6 after 60 mins by fluorescence assay.
Conditions: not given
In the case of `C/C=C1\NC(=O)c2csc(n2)[C@@H](C(C)C)NC(=O)C[C@@H](/C=C/CCSC(=O)CCCCCCC)OC(=O)[C@H](C(C)C)NC1=O`, the IC50 is greater than 10000 nM.

In the case of `C/C=C1\NC(=O)c2csc(n2)CNC(=O)C[C@@H](/C=C/CCSC(=O)CCCCCCC)OC(=O)[C@H](C(C)C)NC1=O`, the IC50 was found to be 6950 nM.

On to `C/C=C1\NC(=O)c2csc(n2)CNC(=O)C[C@@H](/C=C/CCSC(C)=O)OC(=O)[C@H](C(C)C)NC1=O`, for which the IC50 turned out to be 4630 nM.

For another series, the target named is T3, Polyamine deacetylase HDAC10 (Homo sapiens, UniProt Q969S8).
T3 sequence (Q969S8 whole entry): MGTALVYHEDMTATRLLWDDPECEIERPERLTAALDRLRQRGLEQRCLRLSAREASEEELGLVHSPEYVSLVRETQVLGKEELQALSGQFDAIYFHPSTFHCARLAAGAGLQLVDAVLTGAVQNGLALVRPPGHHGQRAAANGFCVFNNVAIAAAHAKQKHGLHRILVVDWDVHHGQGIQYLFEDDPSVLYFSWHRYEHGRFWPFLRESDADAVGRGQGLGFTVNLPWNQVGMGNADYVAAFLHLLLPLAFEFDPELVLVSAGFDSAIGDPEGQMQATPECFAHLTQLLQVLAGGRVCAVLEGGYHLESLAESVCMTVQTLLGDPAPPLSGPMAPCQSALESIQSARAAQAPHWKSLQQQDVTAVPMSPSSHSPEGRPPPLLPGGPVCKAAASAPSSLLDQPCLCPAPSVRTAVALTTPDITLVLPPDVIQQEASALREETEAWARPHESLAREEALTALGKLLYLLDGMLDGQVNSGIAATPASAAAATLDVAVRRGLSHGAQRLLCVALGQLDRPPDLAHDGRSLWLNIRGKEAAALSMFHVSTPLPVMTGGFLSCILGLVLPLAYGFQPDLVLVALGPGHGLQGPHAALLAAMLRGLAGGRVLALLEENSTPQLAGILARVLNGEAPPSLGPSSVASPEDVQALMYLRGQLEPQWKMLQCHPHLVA
Put plainly: Inhibition of recombinant human HDAC10 after 60 mins by fluorescence assay.
Conditions: not given
`C/C=C1\NC(=O)c2csc(n2)[C@@H](C(C)C)NC(=O)C[C@@H](/C=C/CCSC(=O)CCCCCCC)OC(=O)[C@H](C(C)C)NC1=O`: the IC50 stood at 395 nM.

Take `C/C=C1\NC(=O)c2csc(n2)CNC(=O)C[C@@H](/C=C/CCSC(=O)CCCCCCC)OC(=O)[C@H](C(C)C)NC1=O`: the half-maximal inhibitory concentration (IC50) was determined as 1930 nM.

On to `C/C=C1\NC(=O)c2csc(n2)CNC(=O)C[C@@H](/C=C/CCSC(C)=O)OC(=O)[C@H](C(C)C)NC1=O`, for which the IC50 was 751 nM.

The next series concerns the target T4, Histone deacetylase 11 (Homo sapiens, UniProt Q96DB2).
T4 sequence (Q96DB2 whole entry): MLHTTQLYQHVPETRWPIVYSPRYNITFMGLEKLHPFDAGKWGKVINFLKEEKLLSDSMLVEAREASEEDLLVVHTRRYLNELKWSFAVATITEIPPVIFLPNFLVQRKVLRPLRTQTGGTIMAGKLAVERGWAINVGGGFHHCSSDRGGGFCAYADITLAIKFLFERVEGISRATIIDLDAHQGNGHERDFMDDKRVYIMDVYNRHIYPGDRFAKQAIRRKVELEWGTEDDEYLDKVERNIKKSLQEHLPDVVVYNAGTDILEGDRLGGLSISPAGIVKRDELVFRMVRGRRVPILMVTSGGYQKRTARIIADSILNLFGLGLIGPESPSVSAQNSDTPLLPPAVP
Put plainly: Inhibition of recombinant human HDAC11 after 60 mins by fluorescence assay.
Conditions: not given
With `C/C=C1\NC(=O)c2csc(n2)[C@@H](C(C)C)NC(=O)C[C@@H](/C=C/CCSC(=O)CCCCCCC)OC(=O)[C@H](C(C)C)NC1=O`, the half-inhibitory concentration (IC50) was greater than 10000 nM.

`C/C=C1\NC(=O)c2csc(n2)CNC(=O)C[C@@H](/C=C/CCSC(=O)CCCCCCC)OC(=O)[C@H](C(C)C)NC1=O`: the IC50 was greater than 10000 nM.

For the compound `C/C=C1\NC(=O)c2csc(n2)CNC(=O)C[C@@H](/C=C/CCSC(C)=O)OC(=O)[C@H](C(C)C)NC1=O`, the concentration for half-maximal inhibition (IC50) is greater than 10000 nM.

Test system in a further series: not listed separately
Put plainly: Antiproliferative activity against human MOLT4 cells after 72 hrs by CCK8 assay. Type of series: functional, MOLT-4. As to conditions: Homo sapiens, MOLT-4, 72 h. In general terms: Tetrazolium assays rely on reduction of a dye to a coloured formazan, in cell work by metabolically active cells.
As for `C/C=C1\NC(=O)c2csc(n2)[C@@H](C(C)C)NC(=O)C[C@@H](/C=C/CCSC(=O)CCCCCCC)OC(=O)[C@H](C(C)C)NC1=O`, the concentration for 50% growth inhibition (GI50) – broadly, the concentration at which growth is held to half of that of the control – stood at 22 nM.

The compound `C/C=C1\NC(=O)c2csc(n2)CNC(=O)C[C@@H](/C=C/CCSC(=O)CCCCCCC)OC(=O)[C@H](C(C)C)NC1=O` gave a GI50 of 5.87 nM.

Consider `C/C=C1\NC(=O)c2csc(n2)CNC(=O)C[C@@H](/C=C/CCSC(C)=O)OC(=O)[C@H](C(C)C)NC1=O`, for which the 50% growth inhibitory concentration (GI50) was 7.22 nM.

The test system of a further series is U-937. Put plainly: Antiproliferative activity against human U937 cells after 72 hrs by CCK8 assay. The class given is functional. As to conditions: Homo sapiens, U-937, 72 h.
Compound `C/C=C1\NC(=O)c2csc(n2)[C@@H](C(C)C)NC(=O)C[C@@H](/C=C/CCSC(=O)CCCCCCC)OC(=O)[C@H](C(C)C)NC1=O` came in with a concentration for 50% growth inhibition (GI50) of 31.7 nM.

For the compound `C/C=C1\NC(=O)c2csc(n2)CNC(=O)C[C@@H](/C=C/CCSC(=O)CCCCCCC)OC(=O)[C@H](C(C)C)NC1=O`, the 50% growth inhibitory concentration (GI50) is 6.59 nM. Against the preceding compound, the GI50 is about 4.8-fold lower.

Compound `C/C=C1\NC(=O)c2csc(n2)CNC(=O)C[C@@H](/C=C/CCSC(C)=O)OC(=O)[C@H](C(C)C)NC1=O` returned a GI50 of 10.5 nM.

Test system in another series: not listed separately
The experiment in a line: Antiproliferative activity against human WI38 cells after 72 hrs by CCK8 assay. The class given is cell-based, WI-38.
Conditions: not given
The compound `C/C=C1\NC(=O)c2csc(n2)[C@@H](C(C)C)NC(=O)C[C@@H](/C=C/CCSC(=O)CCCCCCC)OC(=O)[C@H](C(C)C)NC1=O` came in with a concentration for 50% growth inhibition (GI50) at 72 h of 561 nM.

Take `C/C=C1\NC(=O)c2csc(n2)CNC(=O)C[C@@H](/C=C/CCSC(=O)CCCCCCC)OC(=O)[C@H](C(C)C)NC1=O`: halving of growth (GI50 at 72 h) required 157 nM. This GI50 at 72 h is about 3.6-fold lower than that of the compound before.

Take `C/C=C1\NC(=O)c2csc(n2)CNC(=O)C[C@@H](/C=C/CCSC(C)=O)OC(=O)[C@H](C(C)C)NC1=O`: the concentration for 50% growth inhibition (GI50) at 72 h turned out to be 258 nM.
